Source: US20240360082A1, “SUBSTITUTED PYRIDONE COMPOUNDS USEFUL TO TREAT ORTH[…]” (priority 2021, published 2024)
Where two headings read alike, the source gives them in different places.

Biological target: influenza A virus minigenome (PB2, PB1, PA, NP proteins) (UniProt P04665)
Type: cell-based

Chain of influenza A virus minigenome (PB2, PB1, PA, NP proteins) (P04665 whole entry): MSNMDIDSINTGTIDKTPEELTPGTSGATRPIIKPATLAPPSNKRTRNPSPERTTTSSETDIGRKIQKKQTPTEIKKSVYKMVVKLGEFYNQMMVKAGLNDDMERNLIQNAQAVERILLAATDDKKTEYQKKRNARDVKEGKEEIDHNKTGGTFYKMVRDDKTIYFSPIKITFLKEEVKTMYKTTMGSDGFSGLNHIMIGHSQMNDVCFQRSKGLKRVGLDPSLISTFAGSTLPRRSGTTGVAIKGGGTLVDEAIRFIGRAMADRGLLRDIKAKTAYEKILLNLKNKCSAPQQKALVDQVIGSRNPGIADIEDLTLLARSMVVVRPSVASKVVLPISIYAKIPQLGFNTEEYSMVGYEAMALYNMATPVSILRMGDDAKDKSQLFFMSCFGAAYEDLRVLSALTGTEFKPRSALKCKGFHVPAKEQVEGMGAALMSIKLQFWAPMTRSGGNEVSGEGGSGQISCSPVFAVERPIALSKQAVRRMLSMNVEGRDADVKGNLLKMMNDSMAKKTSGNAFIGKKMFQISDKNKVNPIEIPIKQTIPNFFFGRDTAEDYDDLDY

SMILES | IC50 (read-out: RNP_Hubei B) | IC50 (read-out: RNP_ Hubei B IC50)
NC(=O)c1cc(-c2ccc(OCC3CN(C4COC4)CCCO3)cc2)c(C(F)(F)F)[nH]c1=O (centres unmarked) [Example 196, 5-(4-((4-(oxetan-3-yl)-1,4-oxazepan-2-yl)methoxy)phenyl)-2-oxo-6-(trifluoromethyl)-1,2-dihydropyridine-3-carboxamide] | 25 to 50 µM | 
CC(C)CS(=O)(=O)N1CCCOC(COc2ccc(-c3cc(C(N)=O)c(=O)[nH]c3C(F)(F)F)cc2)C1 (centres unmarked) [Example 198, 5-(4-((4-(isobutylsulfonyl)-1,4-oxazepan-2-yl)methoxy)phenyl)-2-oxo-6-(trifluoromethyl)-1,2-dihydropyridine-3-carboxamide] | 25 to 50 µM | 
CN1C(COc2ccc(-c3cc(C(N)=O)c(=O)[nH]c3C(F)(F)F)cc2)COCC12COC2 (centres unmarked) [Example 206, 5-(4-((5-methyl-2,8-dioxa-5-azaspiro[3.5]nonan-6-yl)methoxy)phenyl)-2-oxo-6-(trifluoromethyl)-1,2-dihydropyridine-3-carboxamide] | 25 to 50 µM | 
CN1C(COc2ccc(-c3cc(C(N)=O)c(=O)[nH]c3C(F)(F)F)cc2)COCC1(C)C (centres unmarked) [Example 207, 2-oxo-6-(trifluoromethyl)-5-(4-((4,5,5-trimethylmorpholin-3-yl)methoxy)phenyl)-1,2-dihydropyridine-3-carboxamide] | 5 to 10 µM | 
C[C@H]1COCC(COc2ccc(-c3cc(C(N)=O)c(=O)[nH]c3C(F)(F)F)cc2)N1C (stereo partly drawn) [Example 208, 5-(4-(((5S)-4,5-dimethylmorpholin-3-yl)methoxy)phenyl)-2-oxo-6-(trifluoromethyl)-1,2-dihydropyridine-3-carboxamide] | 5 to 10 µM | 
CN1[C@H](COc2ccc(-c3cc(C(N)=O)c(=O)[nH]c3C(F)(F)F)cc2)COC[C@@H]1C1CC1 [Example 209, 5-(4-(((3S,5S)-5-cyclopropyl-4-methylmorpholin-3-yl)methoxy)phenyl)-2-oxo-6-(trifluoromethyl)-1,2-dihydropyridine-3-carboxamide] |  | 5 to 10 µM
CN1[C@@H](COc2ccc(-c3cc(C(N)=O)c(=O)[nH]c3C(F)(F)F)cc2)COC[C@@H]1C1CC1 [Example 210, 5-(4-(((3R,5S)-5-cyclopropyl-4-methylmorpholin-3-yl)methoxy)phenyl)-2-oxo-6-(trifluoromethyl)-1,2-dihydropyridine-3-carboxamide] |  | 5 to 10 µM
CC(C)[C@H]1COCC(COc2ccc(-c3cc(C(N)=O)c(=O)[nH]c3C(F)(F)F)cc2)N1C (stereo partly drawn) [Example 211, 5-(4-(((5S)-5-isopropyl-4-methylmorpholin-3-yl)methoxy)phenyl)-2-oxo-6-(trifluoromethyl)-1,2-dihydropyridine-3-carboxamide] |  | 1 to 5 µM
CCn1nccc1COc1ccc(-c2cc(C(N)=O)c(=O)[nH]c2C(F)(F)F)cc1 [Example 217, 5-(4-((1-ethyl-1H-pyrazol-5-yl)methoxy)phenyl)-2-oxo-6-(trifluoromethyl)-1,2-dihydropyridine-3-carboxamide] |  | 25 to 50 µM
COCCn1cc(COc2ccc(-c3cc(C(N)=O)c(=O)[nH]c3C(F)(F)F)cc2)cn1 [Example 218, 5-(4-((1-(2-methoxyethyl)-1H-pyrazol-4-yl)methoxy)phenyl)-2-oxo-6-(trifluoromethyl)-1,2-dihydropyridine-3-carboxamide] |  | 25 to 50 µM
COCCn1nccc1COc1ccc(-c2cc(C(N)=O)c(=O)[nH]c2C(F)(F)F)cc1 [Example 219, 5-(4-((1-(2-methoxyethyl)-1H-pyrazol-5-yl)methoxy)phenyl)-2-oxo-6-(trifluoromethyl)-1,2-dihydropyridine-3-carboxamide] |  | 25 to 50 µM
Cn1cc(COc2ccc(-c3cc(C(N)=O)c(=O)[nH]c3C(F)(F)F)cc2)cn1 [Example 220, 5-(4-((1-methyl-1H-pyrazol-4-yl)methoxy)phenyl)-2-oxo-6-(trifluoromethyl)-1,2-dihydropyridine-3-carboxamide] |  | 25 to 50 µM
NC(=O)c1cc(-c2ccc(OCc3cnn(CC4CC4)c3)cc2)c(C(F)(F)F)[nH]c1=O [Example 221, 5-(4-((1-(cyclopropylmethyl)-1H-pyrazol-4-yl)methoxy)phenyl)-2-oxo-6-(trifluoromethyl)-1,2-dihydropyridine-3-carboxamide] |  | 10 to 25 µM
CCn1cc(COc2ccc(-c3cc(C(N)=O)c(=O)[nH]c3C(F)(F)F)cc2)cn1 [Example 222, 5-(4-((1-ethyl-1H-pyrazol-4-yl)methoxy)phenyl)-2-oxo-6-(trifluoromethyl)-1,2-dihydropyridine-3-carboxamide] |  | 25 to 50 µM
NC(=O)c1cc(-c2ccc(OCc3ccon3)cc2)c(C(F)(F)F)[nH]c1=O [Example 223, 5-(4-(isoxazol-3-ylmethoxy)phenyl)-2-oxo-6-(trifluoromethyl)-1,2-dihydropyridine-3-carboxamide] |  | 25 to 50 µM
Cc1cc(COc2ccc(-c3cc(C(N)=O)c(=O)[nH]c3C(F)(F)F)cc2)no1 [Example 224, 5-(4-((5-methylisoxazol-3-yl)methoxy)phenyl)-2-oxo-6-(trifluoromethyl)-1,2-dihydropyridine-3-carboxamide] |  | 25 to 50 µM
NC(=O)c1cc(-c2ccc(OCC3CCO3)cc2)c(C(F)(F)F)[nH]c1=O (centres unmarked) [Example 225, 5-(4-(oxetan-2-ylmethoxy)phenyl)-2-oxo-6-(trifluoromethyl)-1,2-dihydropyridine-3-carboxamide] |  | 25 to 50 µM
NC(=O)c1cc(-c2ccc(OCC3(F)COC3)cc2)c(C(F)(F)F)[nH]c1=O [Example 226, 5-(4-((3-fluorooxetan-3-yl)methoxy)phenyl)-2-oxo-6-(trifluoromethyl)-1,2-dihydropyridine-3-carboxamide] |  | 25 to 50 µM

SMILES | IC50 (read-out: RNP_Hubei B) | IC50 (read-out: RNP_ Hubei B IC50)
CC1(COc2ccc(-c3cc(C(N)=O)c(=O)[nH]c3C(F)(F)F)cc2)COC1 [Example 227] |  | 25 to 50 µM
CCC1(COc2ccc(-c3cc(C(N)=O)c(=O)[nH]c3C(F)(F)F)cc2)COC1 [Example 228] |  | 10 to 25 µM
N#CCC1(COc2ccc(-c3cc(C(N)=O)c(=O)[nH]c3C(F)(F)F)cc2)COC1 [Example 229, 5-(4-((3-(cyanomethyl)oxetan-3-yl)methoxy)phenyl)-2-oxo-6-(trifluoromethyl)-1,2-dihydropyridine-3-carboxamide] |  | 25 to 50 µM
NC(=O)c1cc(-c2ccc(OCC3CCOC3)cc2)c(C(F)(F)F)[nH]c1=O (centres unmarked) [Example 231, 2-oxo-5-(4-((tetrahydrofuran-3-yl)methoxy)phenyl)-6-(trifluoromethyl)-1,2-dihydropyridine-3-carboxamide] |  | 25 to 50 µM
NC(=O)c1cc(-c2ccc(OCC3CCCO3)cc2)c(C(F)(F)F)[nH]c1=O (centres unmarked) [Example 232, 2-oxo-5-(4-((tetrahydrofuran-2-yl)methoxy)phenyl)-6-(trifluoromethyl)-1,2-dihydropyridine-3-carboxamide] |  | 10 to 25 µM
CN1CC(COc2ccc(-c3cc(C(N)=O)c(=O)[nH]c3C(F)(F)F)cc2)OC1=O (centres unmarked) [Example 233, 5-(4-((3-methyl-2-oxooxazolidin-5-yl)methoxy)phenyl)-2-oxo-6-(trifluoromethyl)-1,2-dihydropyridine-3-carboxamide] |  | 25 to 50 µM
CCN1CC(COc2ccc(-c3cc(C(N)=O)c(=O)[nH]c3C(F)(F)F)cc2)OC1=O (centres unmarked) [Example 234, 5-(4-((3-ethyl-2-oxooxazolidin-5-yl)methoxy)phenyl)-2-oxo-6-(trifluoromethyl)-1,2-dihydropyridine-3-carboxamide] |  | 25 to 50 µM
CN1C(=O)OCC1COc1ccc(-c2cc(C(N)=O)c(=O)[nH]c2C(F)(F)F)cc1 (centres unmarked) [Example 235, 5-(4-((3-methyl-2-oxooxazolidin-4-yl)methoxy)phenyl)-2-oxo-6-(trifluoromethyl)-1,2-dihydropyridine-3-carboxamide] |  | 25 to 50 µM
NC(=O)c1cc(-c2ccc(OCC3CCCCO3)cc2)c(C(F)(F)F)[nH]c1=O (centres unmarked) [Example 236, 2-oxo-5-(4-((tetrahydro-2H-pyran-2-yl)methoxy)phenyl)-6-(trifluoromethyl)-1,2-dihydropyridine-3-carboxamide] |  | 5 to 10 µM
NC(=O)c1cc(-c2ccc(OCC3COCCO3)c(F)c2)c(C(F)(F)F)[nH]c1=O (centres unmarked) [Example 239, 5-(4-((1,4-dioxan-2-yl)methoxy)-3-fluorophenyl)-2-oxo-6-(trifluoromethyl)-1,2-dihydropyridine-3-carboxamide] |  | 10 to 25 µM
NC(=O)c1cc(-c2ccc(OCC3COCCO3)c(C3CC3)c2)c(C(F)(F)F)[nH]c1=O (centres unmarked) [Example 243, 5-(4-((1,4-dioxan-2-yl)methoxy)-3-cyclopropylphenyl)-2-oxo-6-(trifluoromethyl)-1,2-dihydropyridine-3-carboxamide] |  | 1 to 5 µM
CN1CCOCC1COc1ccc(-c2cc(C(N)=O)c(=O)[nH]c2C(F)(F)F)cc1 (centres unmarked) [Example 247, 5-(4-((4-methylmorpholin-3-yl)methoxy)phenyl)-2-oxo-6-(trifluoromethyl)-1,2-dihydropyridine-3-carboxamide] |  | 25 to 50 µM
NC(=O)c1cc(-c2ccc(OCC3COCCN3C3CC3)cc2)c(C(F)(F)F)[nH]c1=O (centres unmarked) [Example 248, 5-(4-((4-cyclopropylmorpholin-3-yl)methoxy)phenyl)-2-oxo-6-(trifluoromethyl)-1,2-dihydropyridine-3-carboxamide] |  | 5 to 10 µM
CCN1CCOCC1COc1ccc(-c2cc(C(N)=O)c(=O)[nH]c2C(F)(F)F)cc1 (centres unmarked) [Example 249, 5-(4-((4-ethylmorpholin-3-yl)methoxy)phenyl)-2-oxo-6-(trifluoromethyl)-1,2-dihydropyridine-3-carboxamide] |  | 5 to 10 µM
NC(=O)c1cc(-c2ccc(OCC3COCC(=O)N3)cc2)c(C(F)(F)F)[nH]c1=O (centres unmarked) [Example 250, 2-oxo-5-(4-((5-oxomorpholin-3-yl)methoxy)phenyl)-6-(trifluoromethyl)-1,2-dihydropyridine-3-carboxamide] |  | 25 to 50 µM
COCCOc1ccc(-c2cc(C(N)=O)c(=O)[nH]c2C(F)(F)F)cc1 [Example 254, 5-(4-(2-methoxyethoxy)phenyl)-2-oxo-6-(trifluoromethyl)-1,2-dihydropyridine-3-carboxamide] |  | 25 to 50 µM
NC(=O)c1cc(-c2ccc(OCCN3CCOC3=O)cc2)c(C(F)(F)F)[nH]c1=O [Example 257, 2-oxo-5-(4-(2-(2-oxooxazolidin-3-yl)ethoxy)phenyl)-6-(trifluoromethyl)-1,2-dihydropyridine-3-carboxamide] |  | 25 to 50 µM
